Laboratory results as given in the NIST ThermoML archive (doi:10.1021/je800300x).
Numbers after ± are expanded uncertainties.

How the values were obtained:
[1] = Crystal; DTA
[2] = Molar enthalpy of transition or fusion; conditions: Crystal; DSC

## c1ccc2c(c1)-c1ccccc1-2 [biphenylene]
[1]
  Normal melting temperature: 112.2 ± 1.1 °C
[2]
  Molar enthalpy of transition or fusion: 22.6 ± 1.5 kJ/mol
